# Data as given in US12239780B2, “Bi-dose nasal spray” (AKROSWISS AG, priority 2018, dated 2025).
# Legend:
# [1] = test system: claustrophobic patients; settings: cited from earlier work
# [2] = aqueous solution, depending on content of active agent; cited from earlier work
# [3] = Bioavailability and plasma concentration after midazolam from the bi-dose nasal spray
# [4] = nasal administration, no first pass effect; cited from earlier work
smiles,measurement,setting,value
"Cc1ncc2n1-c1ccc(Cl)cc1C(c1ccccc1F)=NC2 [midazolam, 8-chloro-6-(2-fluorophenyl)-1-methyl-4H-imidazole[1,5-a][1,4]-benzodiazepine]",MRI examinations carried out successfully and without relevant side effects,"[1]; 72 patients, oral 7.5 mg (TG1) or intranasal 1.0 to 2.0 mg (TG2)",97%
same,"MRI imaging quality, intranasal group TG2 compared to oral group TG1","[1]; intranasal 1-2 mg versus oral 7.5 mg, p<0.001",significantly higher
same,anxiolytic effect of nasally administered versus orally administered form,[1]; intranasal 1-2 mg versus oral 7.5 mg,significantly superior
same,pH below which the solution of the active agent is stable (precipitates at higher pH),[2],< 3.8 pH
same,time after administration at which a significant plasma concentration is achieved,"[3]; bi-dose nasal spray, intranasal",2 min
same,bioavailability,"[3]; human, plasma, inhaled or intranasal",> 83%
same,bioavailability using a nasal spray,[4],about 80%
